The source of these data is patent publication US9018244B2, “Benzopyran compounds, compositions and uses thereof” (Olema Pharmaceuticals, Inc., priority 2011, dated 2015).

The conditions of series [1]: daily oral dose of 40 mg in women; cited from earlier work.
Series [2] relates to rodent uterus, human uterine cells. The following applies: cited from earlier work.
In series [3] the test system is E2-stimulated AP activity in ECC-1 cells. Nature of the series: Inhibition of E2-stimulated AP activity in ECC-1 cells (antagonist mode). The series is classed as cell-based, human. To be noted: in the presence of 500 pM E2. From the text:
FIG. 2. Alkaline phosphatase (AP) activity in ECC-1 cells correlates with the uterine wet weight of ovariectomized rats, as reported previously in Scafonas, et al. (*; Scafonas et al. “Agonist-like SERM effects on ER alpha-mediated repression of MMPI promoter activity predict in vivo effects on bone and uterus. J Steroid Biochem Mol. Biol. 2008 110(3-5):197-206) and Labrie, et al. (†; Labrie et al. “The combination of a novel selective estrogen receptor modulator with an estrogen protects the mammary gland and uterus in a rodent model: the future of postmenopausal women's health?” Endocrinology. 2003 144(11):4700-6). ECC-1 cells were treated with 500 pM 17β-estradiol (E2) or 1-5 nM anti-estrogens in hormone-depleted medium for 3 days. Note that the racemic mixture of acolbifene, EM-343, was used in the in vitro AP assay. AP activity was measured by incubating a chromogenic AP substrate, p-nitrophenyl phosphate, at 40° C. for 40 minutes followed by measuring the absorbance at 405 nm. Results were from a single representative experiment and reported as the mean percent induction relative to E2 from triplicate treatments, with error bars representing SEM.
FIG. 6. […] A) Comparison of inhibition of E2-stimulated AP activity of various benzopyran compounds (right) compared to published reference compounds (left). ECC-1 cells were treated with 100 nM anti-estrogens in the presence of 500 pM E2 and AP activity was measured as described in FIG. 2. Note that OP-1038 was statistically different from EM-343 and Gauthier compound Ia (p<0.0001 (exact p values stated in graph), calculated using Student's t-test). Results were from a single representative experiment and reported as the mean percent induction relative to E2 from triplicate treatments, with error bars representing SEM. […] IC50's were calculated using the least squares fit method. *Aragon Compound 28 was statistically different from equivalent dose of OP-1038 (p≦0.01, calculated using Student's t-test). […]
Method for performing the alkaline phosphatase (AP) assay. […] Absorbance was read at 405 nm using a plate spectophotometer. […]

Series [4] deals with E2-stimulated estrogen response element (ERE)-regulated reporter gene activity. Briefly: ERE-tk109-Luc reporter gene assay in MCF-7 cells. The series is classed as cell-based, human. To be noted: 100 pM E2, 18-22 hours. How it is done:
(§1) FIG. 10. […] A) OP-1074 had similar potency to model anti-estrogens in the ERE reporter gene assay. MCF-7 cells were transiently transfected with ERE-tk109-Luc and treated with anti-estrogens in hormone-depleted medium in the presence of 100 pM E2 for 22 hours. Results were from a single representative experiment and reported as the mean percent induction relative to E2 from triplicate treatments, with error bars representing SEM. […] Results were from a single representative experiment and reported as the mean percent induction relative to E2 from triplicate treatments, with error bars representing SEM. IC50's were calculated using the least squares fit method.
Compounds of invention are tested for their inhibitory activity of estrogen according to the assay methods described in Hodges-Gallagher, L., Valentine, C. V., El Bader, S. and Kushner, P. J. (2007) “Histone Deacetylase Inhibitors Enhance the Efficacy of Hormonal Therapy Agents on Breast Cancer Cells and Blocks Anti-estrogen-Driven Uterine Cell Proliferation” Breast Cancer Res Treat, November; 105(3):297-309. Specifically, an estrogen-responsive reporter gene (ERE-tk109-Luc) was transiently transfected into MCF-7 cells and treated with anti-estrogens in triplicate in the presence of 100 pM 17β-estradiol (E2) for 18-22 hours. Luciferase activity was normalized to activity of E2 alone and IC50's were calculated using the least squares fit method. This method is also described in legend for FIG. 10.
(In general: In a reporter assay the amount or activity of a reporter protein is the signal.)

Series [5] deals with human MCF-7 breast cancer cells. Briefly: E2-stimulated proliferation of MCF-7 breast cancer cells. The series is classed as cell-based. To be noted: MCF-7 cells, 100 pM E2, 6-8 days. How it is done: as §1, with “11.” for “10.”, “inhibiting E2-stimulated proliferation of breast cells in vitro.” for “the ERE reporter gene assay.”, “were” for “were transiently transfected with ERE-tk109-Luc and”, “medium for 6-8 days” for “medium”, “E2. Proliferation was measured using Cyquant fluorescent DNA-binding dye (Invitrogen, Grand Island, N.Y.).” for “E2 for 22 hours.”
Proliferation in MCF-7 was measured using a fluorescent DNA binding dye 6-8 days after treatment in triplicate with anti-estrogens in the presence of 100 pM E2 and as described in the legend to, and depicted in FIG. 11.

Series [6] deals with T1, estrogen receptor alpha (ERα) (Homo sapiens, UniProt P03372).
T1 construct: endogenous in cells
T1 sequence (P03372 1-595): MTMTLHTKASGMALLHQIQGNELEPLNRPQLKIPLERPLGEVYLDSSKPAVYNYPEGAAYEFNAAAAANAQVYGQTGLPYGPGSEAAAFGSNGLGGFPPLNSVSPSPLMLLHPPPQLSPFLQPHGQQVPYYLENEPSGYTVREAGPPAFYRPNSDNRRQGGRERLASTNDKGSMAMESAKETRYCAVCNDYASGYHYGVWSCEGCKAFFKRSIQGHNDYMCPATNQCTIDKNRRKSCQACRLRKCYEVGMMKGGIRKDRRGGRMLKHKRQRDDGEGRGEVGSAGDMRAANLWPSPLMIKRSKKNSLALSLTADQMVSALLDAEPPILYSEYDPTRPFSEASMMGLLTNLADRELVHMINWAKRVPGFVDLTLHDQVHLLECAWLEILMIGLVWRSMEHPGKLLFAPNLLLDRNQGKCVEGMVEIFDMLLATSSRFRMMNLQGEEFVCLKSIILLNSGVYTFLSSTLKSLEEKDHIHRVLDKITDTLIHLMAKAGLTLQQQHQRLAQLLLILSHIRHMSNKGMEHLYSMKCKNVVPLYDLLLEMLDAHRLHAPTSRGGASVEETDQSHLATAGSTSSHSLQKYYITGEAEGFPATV
Nature of the series: ERα expression by immunoblot after anti-estrogen treatment. The series is classed as cell-based. The following applies: 100 nM anti-estrogen, 22-24 hours, serum-free medium; MCF-7 breast cells and ECC-1 endometrial cells. How it is done:
FIG. 12. […] A) ERα levels in breast cells after treatment with OP-1074 compared to treatment with model anti-estrogens. MCF-7 cells were treated with 100 nM anti-estrogen for 24 hours in serum-free medium and protein extracts immunoblotted with an antibody to ERα (D12, Santa Cruz Biotechnology, Santa Cruz, Calif.). Image is from a single representative experiment and number on top denotes the mean percent ERα expression relative to vehicle from quadruplicate treatments. B) OP-1038 induces degradation of ERα in both MCF-7 breast cells and ECC-1 endometrial cells.
ERα expression was detected in MCF-7 cell lysates treated with 100 nM anti-estrogens in serum-free medium for 22-24 hours and immunoblotted with an antibody specific to ERα as described in the legend to, and depicted in FIG. 12.

As for `CC1=C(c2ccc(OC(=O)C(C)(C)C)cc2)[C@H](c2ccc(OCCN3CCCCC3)cc2)Oc2cc(OC(=O)C(C)(C)C)ccc21` [EM800], the “Mean drug exposure of circulating acolbifene” value in series [1] was 15 ng/mL.
For `CC12CCC3c4ccc(O)cc4CC(CCCCCCCCC[S+]([O-])CCCC(F)(F)C(F)(F)F)C3C1CCC2O` (stereo not shown) [fulvestrant], the “Residual estrogen-like action relative to estradiol” value in series [2] is recorded as “almost unmeasurable”.
With `CC1=C(c2ccc(O)cc2)[C@H](c2ccc(OCCN3CCCCC3)cc2)Oc2cc(O)ccc21` [EM-652, (S)-3-(4-hydroxyphenyl)-4-methyl-2-(4-(2-(piperidin-1-yl)ethoxy)phenyl)-2H-chromen-7-ol], in series [1], the “Mean drug exposure of circulating acolbifene” value is 8.3 ng/mL.
Take `CC1=C(c2ccc(O)cc2)[C@@H](c2ccc(OCCN3CC[C@@H](C)C3)cc2)Oc2cc(O)ccc21` [OP-1075, (2R)-3-(4-hydroxyphenyl)-4-methyl-2-(4-{2-[(3R)-3-methylpyrrolidin-1-yl]ethoxy}phenyl)-2H-chromen-7-ol]: the “Inhibition of E2-stimulated AP activity” value in series [3] is reported as “reduced activity”. In addition, the “Antagonism of E2-stimulated ERE-regulated reporter gene activity” value in series [4] is listed as “reduced activity”. Further, in series [5], the “Antagonism of E2-stimulated proliferation” value is reported as “reduced activity”. Moreover, the “Degradation of ERα” value in series [6] was “degrade the receptor”.
